Measured values from patent US12377063B2, “Combination therapies for managing cancer” (Emory University, priority 2019, dated 2025).

Legend:
Type in all cases: cell-based
parental H1299 cells = experiment: Spheroid invasion assay, parental H1299; conditions: FIG. 7E
Protocol: (§1) To determine how GLUT1 expression in followers could be regulated upstream, signaling alterations that might contribute to altered GLUT1 expression in leaders and followers were evaluated. YAP and TAZ are transcriptional co-activators of TEAD (Hippo signaling) and regulate GLUT1 expression. YAP/TEAD 1-4 members were interrogated. […] Cells were treated with the YAP/TEAD inhibitor, verteporfin, which has promising anti-tumor activity.

H1299 cells = experiment: Cell number / viability after verteporfin; conditions: parental H1299 cells; 72 hours; FIG. 7D
Protocol: as §1

[1] = tested on: GLUT1 mRNA expression in followers; experiment: GLUT1 mRNA expression by qRT-PCR; conditions: 24 hrs, FIG. 7C
Protocol: as §1

leader cells [2] = experiment: Lactate production after alexidine treatment; conditions: alexidine treatment for 24 hours
leader cells [3] = experiment: Cell death in leader cells; conditions: after 72 hours
Excerpt: (§2) Compounds were screened, and it was discovered that most compounds effective at inhibiting lead cells were typically anti-metabolic agents that disrupt OXPHOS. One such compound, alexidine hydrochloride targets mitochondrial function. Leader cells are sensitive to mitochondria-targeting agents as a class.

[4] = tested on: multiple lung and mixed leader:follower lines; experiment: Collective invasion of spheroids embedded in Matrigel; conditions: alexidine alone
Excerpt: Brightfield representative images are shown. Solid lines designate outer perimeter. Scale bar=50 μm.
as §2
(§3) Since alexidine inhibits active PDH in leaders and Bay-876 targets GLUT1, the combination of alexidine and Bay-876 to co-target these cellular subtypes, respectively, during collective invasion was examined. To quantitatively determine synergy a combination index analyses was used. […] Importantly, normal lung epithelial cells (HBEC, MRC5) had no synergy at low and moderate doses (FIG. 8A). The effects of Bay-876 plus alexidine on invasion were examined. […] It is also contemplated that one can co-target metabolically heterogeneous populations using the combination of the leader cell targeting agent, alexidine, and the GLUT1 targeting agent, BAY-876 or the glycolytic/PPP activity of followers and OXHOS-driven biology of the leaders in a manor illustrated in the table below.

[5] = tested on: p-PDHS293 in leader cells; experiment: p-PDHS293 after alexidine treatment, leader cells; conditions: alexidine treatment for 24 hours
Excerpt: Alexidine Dihydrochloride Induces Metabolic Reprogramming of Leader Cells Via S293 Phosphorylation of PDH
as §3

[6] = tested on: pPDHS293 in follower cells; experiment: pPDHS293 after alexidine treatment, follower cells
follower/leader cells = conditions: leaders vs followers; 72 hrs of treatment; FIG. 3D

Compound: verteporfin
- invasive properties (invasive area) (parental H1299 cells): significantly reduced
- proliferative properties (cell number) (H1299 cells): significantly reduced
- GLUT1 mRNA expression [1]: suppressed GLUT1 mRNA expression in followers in a dose-dependent manner

Compound: CCCCC(CC)CNC(=N)NC(=N)NCCCCCCNC(=N)NC(=N)NCC(CC)CCCC (centres unmarked) [Alexidine, 1,1′-(hexane-1,6-diyl)bis(5-(2-ethylhexyl)biguanidine)]
- lactate production (leader cells [2]): increased lactate production
- cell death (leader cells [3]): no significant amount of cell death
- doses decreasing invasiveness relative to doses inducing cell death ([4]; earlier time points prior to effect on proliferation): doses lower than those that induce cell death
- collective invasion ([4]; multiple lung cell lines): dose-dependent inhibition
- p-PDHS293 level [5]: increased p-PDHS293
- impact on pPDHS293 [6]: no significant impact

Compound: C/C=C(\C)[C@H](O)[C@H](C)/C=C(C)/C=C/C/C(C)=C/Cc1nc(OC)c(OC)c(O)c1C [piericidin, piericidin A]
- sensitivity of leaders to complex I inhibitors (proliferation) (follower/leader cells): increased sensitivity

Compound: CN(C)C(=N)N=C(N)N [metformin]
- sensitivity of leaders to complex I inhibitors (proliferation) (follower/leader cells): increased sensitivity
